Values after ≈ are worked out from the molar mass of the structure shown.
Experiments:
Experiment in all cases: microbe, parasite or virus in culture
K. pneumoniae = tested on: K. pneumoniae
Procedure, shortened: (§1)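 Broth microdilution in MHB, 2-fold 12-point series from 128 or 64 down to 0.06 or 0.03 μg mL^−1, 5 × 10^5 CFU mL^−1. Extra runs in CAMHB per CLSI and in MHB with 1% agarose; n ≥ 6.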

P. aeruginosa = tested on: P. aeruginosa
Procedure, shortened: as §1

E. coli = tested on: E. coli
Procedure, shortened: as §1

C[C@H]1[C@H](NC(=O)/C(=N\OC(C)(C)C(=O)O)c2csc(N)n2)C(=O)N1S(=O)(=O)O [AZT]
MIC, broth microdilution (K. pneumoniae; K. pneumoniae 3010 parent strain not exposed to drug): 0.06 µg/mL (≈ 0.138 µM)
MIC, broth microdilution (K. pneumoniae; K. pneumoniae ST258 parent strain not exposed to drug): >32 µg/mL
MIC, broth microdilution (K. pneumoniae; K. pneumoniae ST258 spontaneous mutant, AA139 selection 4X, plate 1, colony 1, drug-free passage 1): >32 , >32 µg/mL
MIC, broth microdilution (K. pneumoniae; K. pneumoniae ST258 spontaneous mutant, AA139 selection 4X, plate 1, colony 1, drug-free passage 5): >32 , >32 µg/mL
MIC, broth microdilution (P. aeruginosa; P. aeruginosa ATCC 27853 parent strain not exposed to drug): 4 µg/mL (≈ 9.19 µM)
MIC, broth microdilution (P. aeruginosa; P. aeruginosa ATCC 27853 spontaneous mutant, AA139 selection 4X, plate 1, colony 1, drug-free passage 1): 4, 4 µg/mL
MIC, broth microdilution (P. aeruginosa; P. aeruginosa ATCC 27853 spontaneous mutant, AA139 selection 4X, plate 1, colony 1, drug-free passage 5): 4, 4 µg/mL
MIC, broth microdilution (P. aeruginosa; P. aeruginosa ATCC 27853 spontaneous mutant, AA139 selection 4X, plate 1, colony 2, drug-free passage 1): 8 µg/mL (≈ 18.4 µM)
MIC, broth microdilution (P. aeruginosa; P. aeruginosa ATCC 27853 spontaneous mutant, AA139 selection 4X, plate 1, colony 2, drug-free passage 5): 4 µg/mL (≈ 9.19 µM)
MIC, broth microdilution (P. aeruginosa; P. aeruginosa ATCC 27853 spontaneous mutant, AA139 selection 4X, plate 1, colony 3, drug-free passage 1): 4 µg/mL (≈ 9.19 µM)
MIC, broth microdilution (P. aeruginosa; P. aeruginosa ATCC 27853 spontaneous mutant, AA139 selection 4X, plate 1, colony 3, drug-free passage 5): 8 µg/mL (≈ 18.4 µM)
MIC, broth microdilution (P. aeruginosa; P. aeruginosa ATCC 27853 spontaneous mutant, AA139 selection 4X, plate 1, colony 4, drug-free passage 1): 8 µg/mL (≈ 18.4 µM)
MIC, broth microdilution (P. aeruginosa; P. aeruginosa ATCC 27853 spontaneous mutant, AA139 selection 4X, plate 1, colony 4, drug-free passage 5): 4 µg/mL (≈ 9.19 µM)
MIC, broth microdilution (P. aeruginosa; P. aeruginosa ATCC 27853 spontaneous mutant, AA139 selection 4X, plate 1, colony 5, drug-free passage 1): 8 µg/mL (≈ 18.4 µM)
MIC, broth microdilution (P. aeruginosa; P. aeruginosa ATCC 27853 spontaneous mutant, AA139 selection 4X, plate 1, colony 5, drug-free passage 5): 4 µg/mL (≈ 9.19 µM)
MIC, broth microdilution (P. aeruginosa; P. aeruginosa ATCC 27853 spontaneous mutant, AA139 selection 4X, plate 1, colony 6, drug-free passage 1): 8 µg/mL (≈ 18.4 µM)
MIC, broth microdilution (P. aeruginosa; P. aeruginosa ATCC 27853 spontaneous mutant, AA139 selection 4X, plate 1, colony 6, drug-free passage 5): 4 µg/mL (≈ 9.19 µM)
MIC, broth microdilution (P. aeruginosa; P. aeruginosa ATCC 27853 spontaneous mutant, AA139 selection 4X, plate 2, colony 1, drug-free passage 1): 4, 4 µg/mL
MIC, broth microdilution (P. aeruginosa; P. aeruginosa ATCC 27853 spontaneous mutant, AA139 selection 4X, plate 2, colony 1, drug-free passage 5): 4, 4 µg/mL
MIC, broth microdilution (P. aeruginosa; P. aeruginosa ATCC 27853 spontaneous mutant, AA139 selection 4X, plate 2, colony 2, drug-free passage 1): 4, 4 µg/mL
MIC, broth microdilution (P. aeruginosa; P. aeruginosa ATCC 27853 spontaneous mutant, AA139 selection 4X, plate 2, colony 2, drug-free passage 5): 4, 4 µg/mL
MIC, broth microdilution (P. aeruginosa; P. aeruginosa ATCC 27853 spontaneous mutant, AA139 selection 4X, plate 2, colony 3, drug-free passage 1): 4, 4 µg/mL
MIC, broth microdilution (P. aeruginosa; P. aeruginosa ATCC 27853 spontaneous mutant, AA139 selection 4X, plate 2, colony 3, drug-free passage 5): 4, 4 µg/mL
MIC, broth microdilution (P. aeruginosa; P. aeruginosa ATCC 27853 spontaneous mutant, AA139 selection 4X, plate 2, colony 4, drug-free passage 1): 4, 4 µg/mL
MIC, broth microdilution (P. aeruginosa; P. aeruginosa ATCC 27853 spontaneous mutant, AA139 selection 4X, plate 2, colony 4, drug-free passage 5): 4, 4 µg/mL
MIC, broth microdilution (P. aeruginosa; P. aeruginosa ATCC 27853 spontaneous mutant, AA139 selection 8X, plate 1, colony 1, drug-free passage 1): 8 µg/mL (≈ 18.4 µM)
MIC, broth microdilution (P. aeruginosa; P. aeruginosa ATCC 27853 spontaneous mutant, AA139 selection 8X, plate 1, colony 1, drug-free passage 5): 4 µg/mL (≈ 9.19 µM)
MIC, broth microdilution (P. aeruginosa; P. aeruginosa ATCC 27853 spontaneous mutant, AA139 selection 8X, plate 1, colony 2, drug-free passage 1): 8, 8 µg/mL
MIC, broth microdilution (P. aeruginosa; P. aeruginosa ATCC 27853 spontaneous mutant, AA139 selection 8X, plate 1, colony 2, drug-free passage 5): 8, 8 µg/mL
MIC, broth microdilution (P. aeruginosa; P. aeruginosa ATCC 27853 spontaneous mutant, AA139 selection 8X, plate 1, colony 3, drug-free passage 1): 8, 8 µg/mL
MIC, broth microdilution (P. aeruginosa; P. aeruginosa ATCC 27853 spontaneous mutant, AA139 selection 8X, plate 1, colony 3, drug-free passage 5): 8, 8 µg/mL
MIC, broth microdilution (P. aeruginosa; P. aeruginosa ATCC 27853 spontaneous mutant, AA139 selection 8X, plate 1, colony 4, drug-free passage 1): 8, 8 µg/mL
MIC, broth microdilution (P. aeruginosa; P. aeruginosa ATCC 27853 spontaneous mutant, AA139 selection 8X, plate 1, colony 4, drug-free passage 5): 8, 8 µg/mL
MIC, broth microdilution (P. aeruginosa; P. aeruginosa ATCC 27853 spontaneous mutant, AA139 selection 8X, plate 1, colony 5, drug-free passage 1): 8, 8 µg/mL
MIC, broth microdilution (P. aeruginosa; P. aeruginosa ATCC 27853 spontaneous mutant, AA139 selection 8X, plate 1, colony 5, drug-free passage 5): 8, 8 µg/mL
MIC, broth microdilution (P. aeruginosa; P. aeruginosa UNT 138-1 parent strain not exposed to drug): 4 µg/mL (≈ 9.19 µM)
MIC, broth microdilution (P. aeruginosa; P. aeruginosa UNT 138-1 spontaneous mutant, AA139 selection 4X, plate 1, colony 1, drug-free passage 1): 4 µg/mL (≈ 9.19 µM)
MIC, broth microdilution (P. aeruginosa; P. aeruginosa UNT 138-1 spontaneous mutant, AA139 selection 4X, plate 1, colony 1, drug-free passage 5): 8 µg/mL (≈ 18.4 µM)
MIC, broth microdilution (P. aeruginosa; P. aeruginosa UNT 138-1 spontaneous mutant, AA139 selection 4X, plate 1, colony 2, drug-free passage 1): 4, 4 µg/mL
MIC, broth microdilution (P. aeruginosa; P. aeruginosa UNT 138-1 spontaneous mutant, AA139 selection 4X, plate 1, colony 2, drug-free passage 5): 4, 4 µg/mL
MIC, broth microdilution (P. aeruginosa; P. aeruginosa UNT 138-1 spontaneous mutant, AA139 selection 4X, plate 1, colony 3, drug-free passage 1): 4 µg/mL (≈ 9.19 µM)
MIC, broth microdilution (P. aeruginosa; P. aeruginosa UNT 138-1 spontaneous mutant, AA139 selection 4X, plate 1, colony 3, drug-free passage 5): 8 µg/mL (≈ 18.4 µM)
MIC, broth microdilution (P. aeruginosa; P. aeruginosa UNT 138-1 spontaneous mutant, AA139 selection 4X, plate 1, colony 4, drug-free passage 1): 8, 8 µg/mL
MIC, broth microdilution (P. aeruginosa; P. aeruginosa UNT 138-1 spontaneous mutant, AA139 selection 4X, plate 1, colony 4, drug-free passage 5): 8, 8 µg/mL
MIC, broth microdilution (P. aeruginosa; P. aeruginosa UNT 138-1 spontaneous mutant, AA139 selection 4X, plate 1, colony 5, drug-free passage 1): 4, 4 µg/mL
MIC, broth microdilution (P. aeruginosa; P. aeruginosa UNT 138-1 spontaneous mutant, AA139 selection 4X, plate 1, colony 5, drug-free passage 5): 4, 4 µg/mL
MIC, broth microdilution (P. aeruginosa; P. aeruginosa UNT 138-1 spontaneous mutant, AA139 selection 4X, plate 1, colony 6, drug-free passage 1): 4, 4 µg/mL
MIC, broth microdilution (P. aeruginosa; P. aeruginosa UNT 138-1 spontaneous mutant, AA139 selection 4X, plate 1, colony 6, drug-free passage 5): 4, 4 µg/mL
MIC, broth microdilution (P. aeruginosa; P. aeruginosa UNT 138-1 spontaneous mutant, AA139 selection 4X, plate 1, colony 7, drug-free passage 1): 4, 4 µg/mL
MIC, broth microdilution (P. aeruginosa; P. aeruginosa UNT 138-1 spontaneous mutant, AA139 selection 4X, plate 1, colony 7, drug-free passage 5): 4, 4 µg/mL
MIC, broth microdilution (P. aeruginosa; P. aeruginosa UNT 138-1 spontaneous mutant, AA139 selection 4X, plate 2, colony 1, drug-free passage 1): 8, 8 µg/mL
MIC, broth microdilution (P. aeruginosa; P. aeruginosa UNT 138-1 spontaneous mutant, AA139 selection 4X, plate 2, colony 1, drug-free passage 5): 8, 8 µg/mL
MIC, broth microdilution (P. aeruginosa; P. aeruginosa UNT 138-1 spontaneous mutant, AA139 selection 4X, plate 2, colony 2, drug-free passage 1): 4, 4 µg/mL
MIC, broth microdilution (P. aeruginosa; P. aeruginosa UNT 138-1 spontaneous mutant, AA139 selection 4X, plate 2, colony 2, drug-free passage 5): 4, 4 µg/mL
MIC, broth microdilution (P. aeruginosa; P. aeruginosa UNT 138-1 spontaneous mutant, AA139 selection 4X, plate 2, colony 3, drug-free passage 1): 4, 4 µg/mL
MIC, broth microdilution (P. aeruginosa; P. aeruginosa UNT 138-1 spontaneous mutant, AA139 selection 4X, plate 2, colony 3, drug-free passage 5): 4, 4 µg/mL
MIC, broth microdilution (P. aeruginosa; P. aeruginosa UNT 138-1 spontaneous mutant, AA139 selection 4X, plate 2, colony 4, drug-free passage 1): 4, 4 µg/mL
MIC, broth microdilution (P. aeruginosa; P. aeruginosa UNT 138-1 spontaneous mutant, AA139 selection 4X, plate 2, colony 4, drug-free passage 5): 4, 4 µg/mL
MIC, broth microdilution (P. aeruginosa; P. aeruginosa UNT 138-1 spontaneous mutant, AA139 selection 4X, plate 2, colony 5, drug-free passage 1): 4, 4 µg/mL
MIC, broth microdilution (P. aeruginosa; P. aeruginosa UNT 138-1 spontaneous mutant, AA139 selection 4X, plate 2, colony 5, drug-free passage 5): 4, 4 µg/mL
MIC, broth microdilution (P. aeruginosa; P. aeruginosa UNT 138-1 spontaneous mutant, AA139 selection 4X, plate 2, colony 6, drug-free passage 1): 4, 4 µg/mL
MIC, broth microdilution (P. aeruginosa; P. aeruginosa UNT 138-1 spontaneous mutant, AA139 selection 4X, plate 2, colony 6, drug-free passage 5): 4, 4 µg/mL
MIC, broth microdilution (P. aeruginosa; P. aeruginosa UNT 138-1 spontaneous mutant, AA139 selection 4X, plate 2, colony 7, drug-free passage 1): 4, 4 µg/mL
MIC, broth microdilution (P. aeruginosa; P. aeruginosa UNT 138-1 spontaneous mutant, AA139 selection 4X, plate 2, colony 7, drug-free passage 5): 4, 4 µg/mL
MIC, broth microdilution (P. aeruginosa; P. aeruginosa UNT 138-1 spontaneous mutant, AA139 selection 8X, plate 1, colony 1, drug-free passage 1): 4, 4 µg/mL
MIC, broth microdilution (P. aeruginosa; P. aeruginosa UNT 138-1 spontaneous mutant, AA139 selection 8X, plate 1, colony 1, drug-free passage 5): 4, 4 µg/mL
MIC, broth microdilution (P. aeruginosa; P. aeruginosa UNT 138-1 spontaneous mutant, AA139 selection 8X, plate 1, colony 2, drug-free passage 1): 4, 4 µg/mL
MIC, broth microdilution (P. aeruginosa; P. aeruginosa UNT 138-1 spontaneous mutant, AA139 selection 8X, plate 1, colony 2, drug-free passage 5): 4, 4 µg/mL
MIC, broth microdilution (P. aeruginosa; P. aeruginosa UNT 138-1 spontaneous mutant, AA139 selection 8X, plate 1, colony 3, drug-free passage 1): 4, 4 µg/mL
MIC, broth microdilution (P. aeruginosa; P. aeruginosa UNT 138-1 spontaneous mutant, AA139 selection 8X, plate 1, colony 3, drug-free passage 5): 4, 4 µg/mL
MIC, broth microdilution (P. aeruginosa; P. aeruginosa UNT 138-1 spontaneous mutant, AA139 selection 8X, plate 1, colony 4, drug-free passage 1): 4, 4 µg/mL
MIC, broth microdilution (P. aeruginosa; P. aeruginosa UNT 138-1 spontaneous mutant, AA139 selection 8X, plate 1, colony 4, drug-free passage 5): 4, 4 µg/mL
MIC, broth microdilution (P. aeruginosa; P. aeruginosa UNT 138-1 spontaneous mutant, AA139 selection 8X, plate 1, colony 5, drug-free passage 1): 4 µg/mL (≈ 9.19 µM)
MIC, broth microdilution (P. aeruginosa; P. aeruginosa UNT 138-1 spontaneous mutant, AA139 selection 8X, plate 1, colony 5, drug-free passage 5): 8 µg/mL (≈ 18.4 µM)
MIC, broth microdilution (P. aeruginosa; P. aeruginosa UNT 138-1 spontaneous mutant, AA139 selection 8X, plate 2, colony 1, drug-free passage 1): 4 µg/mL (≈ 9.19 µM)
MIC, broth microdilution (P. aeruginosa; P. aeruginosa UNT 138-1 spontaneous mutant, AA139 selection 8X, plate 2, colony 1, drug-free passage 5): 8 µg/mL (≈ 18.4 µM)
MIC, broth microdilution (E. coli; E. coli AUD172 parent strain not exposed to drug): >32 µg/mL
MIC, broth microdilution (E. coli; E. coli AUD172 spontaneous mutant, AA139 selection 4X, plate 2, colony 2, drug-free passage 1): >32 , >32 µg/mL
MIC, broth microdilution (E. coli; E. coli AUD172 spontaneous mutant, AA139 selection 4X, plate 2, colony 2, drug-free passage 5): >32 , >32 µg/mL

Source: PMC7311426, “An amphipathic peptide with antibiotic activity against multidrug-resistant Gram-negative bacteria” (Nature Communications, 2020)
